Reference: patent US20010056184A1, “Pipecolinic acid derivatives, method of manufacturing the same and therapeutic agents containing these compounds” (priority 2000, published 2001)

Assays:
[1] = target: T1, human fibroblasts derived MMP-1 (type I collagenase) (Homo sapiens, UniProt P03956); experiment: MMP-1 (type I collagenase) inhibitory activities, fluorogenic substrate enzyme assay; format: biochemical; settings: for IC50: 37° C., 4 h, substrate 10 μM; for inhibition at 10 µM: at 10^−5M, NE means no effect, read-out: MMP-1 inhibition percent
T1 construct: human fibroblasts derived MMP-1 (Yagai Co. Ltd.) as enzyme; purchased Yagai Co. Ltd; host or cells: human fibroblasts
T1 sequence (P03956 100-469): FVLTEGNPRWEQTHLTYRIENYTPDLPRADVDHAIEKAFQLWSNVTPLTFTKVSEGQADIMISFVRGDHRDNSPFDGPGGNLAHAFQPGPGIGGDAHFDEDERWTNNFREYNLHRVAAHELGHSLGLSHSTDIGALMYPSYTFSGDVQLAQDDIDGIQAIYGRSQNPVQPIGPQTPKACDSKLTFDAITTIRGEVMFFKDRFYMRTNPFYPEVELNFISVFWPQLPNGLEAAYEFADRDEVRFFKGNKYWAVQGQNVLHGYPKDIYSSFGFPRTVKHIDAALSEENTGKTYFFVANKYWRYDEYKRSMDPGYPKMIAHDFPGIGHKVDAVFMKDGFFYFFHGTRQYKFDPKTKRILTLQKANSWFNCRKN
Method: Examination 1: MMP-1 (type I collagenase) inhibitory activities.
Inhibitory activities of MMP-1 (type I collagenase) activities were estimated by enzyme assay using human fibroblasts derived MMP-1 (Yagai Co. Ltd.) as enzyme, and MOCAc-Pro-Leu-Gly-Leu-A2pr(Dnp)-Ala-Arg-NH2 (Peptide Research Center, 3163-v) as substrate. Thus, MMP-1 (0.01 U/ml), test compound (10^−10˜10^−5 M), and the substrate (10 μM) were incubated in 50 mM Tris-HCl buffer (pH 7.4) containing 0.2M NaCl, 10 mM CaCl2, 0.02% NaN3, and 0.05% Brij 35 at 37° C. for 4 h. The reaction was stopped by adding of 4 volumes of sodium acetate buffer (pH 4.0), and the degradation of substrate was calculated by measurement with a fluorescence intensity (λ ex 328 nm, λ em 393 nm). Inhibition of degradation of substrate in the presence of compound was determined by comparison with the degradation percent of substrate in the absence of compound, and concentration of 50% inhibition (IC50 value) was calculated.

MMP-2 (gelatinase A) = target: T2, MMP-2 (gelatinase A) (Homo sapiens, UniProt P08253); experiment: MMP-2 (gelatinase A) inhibitory activities, fluorogenic substrate enzyme assay; format: biochemical; settings: 42° C., 2 h, substrate 10 μM
T2 construct: made in house; host or cells: COS-1 cells (secreted into culture medium)
T2 sequence (P08253 110-660): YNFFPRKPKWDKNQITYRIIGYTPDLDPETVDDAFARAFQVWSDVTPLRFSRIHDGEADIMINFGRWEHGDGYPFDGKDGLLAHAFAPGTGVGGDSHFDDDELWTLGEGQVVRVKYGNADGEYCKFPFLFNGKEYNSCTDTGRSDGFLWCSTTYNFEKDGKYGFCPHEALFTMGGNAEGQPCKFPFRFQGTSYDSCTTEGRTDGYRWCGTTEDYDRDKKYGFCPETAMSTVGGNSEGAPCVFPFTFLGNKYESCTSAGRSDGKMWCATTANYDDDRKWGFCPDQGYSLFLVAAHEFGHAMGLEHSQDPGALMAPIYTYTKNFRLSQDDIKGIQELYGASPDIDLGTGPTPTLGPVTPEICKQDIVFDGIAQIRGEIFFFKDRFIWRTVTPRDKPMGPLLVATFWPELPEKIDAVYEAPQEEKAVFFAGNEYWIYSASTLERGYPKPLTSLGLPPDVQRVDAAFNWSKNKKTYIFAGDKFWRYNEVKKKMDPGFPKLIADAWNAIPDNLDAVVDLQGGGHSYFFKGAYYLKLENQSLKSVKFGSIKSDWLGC
Method: (§1) Examination 2: MMP-2 (gelatinase A) and MMP-9 (gelatinase B) inhibitory activities.
(§2) Pro MMP-2 was obtained from culture medium separated from human pro-MMP-2 cDNA tranfected COS-1 cells. Pro MMP-2 activated by 1 mM (4-aminophenyl) mercury acetic acid and MMP-9, derived human fibrosarcome (Yagai Co. Ltd.), were used as enzyme respectively. Inhibition of both enzyme activities were estimated by enzyme assay using MOCAc-Pro-Leu-Gly-Leu-A2pr(Dnp)-Ala-Arg-NH2 (Peptide Research Center, 3163-v) as substrate. Thus, MMP-2 or MMP-9 (0.01 U/ml), test compound (several concentrations), and the substrate (10 μM) were incubated in 50 mM Tris - HCl buffer (pH 7.4) containing 0.2M NaCl, 10 mM CaCl2, 0.02% NaN3, and 0.05% Brij 35 at 42° C. for 2 h (MMP-2), 3 h (MMP-9) respectively. Inhibition of degradation of substrate in the presence of compound was determined by comparison with the degradation of substrate in the absence of compound, and concentration of 50% inhibition (IC50 value) was calculated.

MMP-9 (gelatinase B) = target: T3, MMP-9 (gelatinase B) (Homo sapiens, UniProt P14780); experiment: MMP-9 (gelatinase B) inhibitory activities, fluorogenic substrate enzyme assay; format: biochemical; settings: 42° C., 3 h, substrate 10 μM
T3 construct: MMP-9, derived human fibrosarcome (Yagai Co. Ltd.), were used as enzyme respectively; purchased Yagai Co. Ltd; host or cells: human fibrosarcoma
Method: as §1, §2

Δ MT1-MMP (Δ MMP-14) = target: T4, Δ MT1-MMP (Δ MMP-14) (Homo sapiens, UniProt P50281); experiment: Δ MT1-MMP (Δ MMP-14) inhibitory activities, fluorogenic substrate enzyme assay; format: biochemical; settings: 37° C., 30 min, substrate 10 μM; read-out: ΔMMP-14 IC50
T4 construct: ProMT1-MMP cDNA encoded extracellular domain of pro Δ MT1-MMP was tranfected E. coli BL21DE3; made in house; host or cells: E. coli BL21DE3 (inclusion bodies, 8M urea, ion exchange)
From the text: Examination 3: Δ MT1-MMP (Δ MMP-14) inhibitory activities.
ProMT1-MMP cDNA encoded extracellular domain of pro Δ MT1-MMP was tranfected E. coli BL21DE3, pro Δ MT1-MMP collected as inclusion body was solved using 8M urea, and it was pulified by ion exchenge column chlomatography. Inhibition of enzyme activities were estimated by enzyme assay using activated Δ MT1-MMP, obtained from activation of pro Δ MT1-MMP by 10 μ/ml tripsine, and MOCAc-Pro-Leu-Gly-Leu-A2pr(Dnp)-Ala-Arg-NH2 (Peptide Research Center, 3163-v) as substrate. Thus, Δ MT1-MMP, test compound (several concentrations), and the substrate (10 μM) were incubated in 50 mM Tris - HCl buffer (pH 7.4) containing 0.2M NaCl, 10 mM CaCl2, 0.02% NaN3, 0.05% Brij 35, and 10 μM leuipeputine at 37° C. for 30 min. The reaction was stopped by adding of 4 volumes of sodium acetate buffer (pH 4.0), and the degradation of substrate was calculated by measurement with a fluorescence intensity (λ ex 328 nm, λ em 393 nm). Inhibition of degradation of substrate in the presence of compound was determined by comparison with the degradation of substrate in the absence of compound, and concentration of 50% inhibition (IC50 value) was calculated.

T3 sequence (P14780 94-707): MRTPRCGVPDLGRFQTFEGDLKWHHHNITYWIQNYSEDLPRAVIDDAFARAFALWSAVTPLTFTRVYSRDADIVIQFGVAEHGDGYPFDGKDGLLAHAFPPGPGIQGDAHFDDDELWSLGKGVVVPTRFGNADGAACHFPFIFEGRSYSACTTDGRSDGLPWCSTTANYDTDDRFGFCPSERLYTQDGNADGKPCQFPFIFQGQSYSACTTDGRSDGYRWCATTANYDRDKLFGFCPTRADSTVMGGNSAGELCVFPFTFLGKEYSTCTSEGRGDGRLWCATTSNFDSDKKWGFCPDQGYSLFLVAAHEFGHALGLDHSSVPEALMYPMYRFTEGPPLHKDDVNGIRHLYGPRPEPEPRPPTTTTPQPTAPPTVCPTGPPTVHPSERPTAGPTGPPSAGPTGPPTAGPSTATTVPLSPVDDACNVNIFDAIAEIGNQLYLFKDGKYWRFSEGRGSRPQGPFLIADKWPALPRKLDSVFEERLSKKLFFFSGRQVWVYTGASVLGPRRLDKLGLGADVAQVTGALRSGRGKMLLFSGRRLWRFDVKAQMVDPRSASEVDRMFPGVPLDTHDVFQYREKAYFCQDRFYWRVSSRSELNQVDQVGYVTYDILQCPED

Compound | IC50 [1] | IC50 (MMP-2 (gelatinase A)) | IC50 (MMP-9 (gelatinase B)) | IC50 (Δ MT1-MMP (Δ MMP-14)) | inhibition at 10 µM [1] | melting point
COc1ccc(C(=O)N[C@@H]2CCN(S(=O)(=O)c3cccs3)[C@@H](C(=O)NO)C2)cc1 [Compound 50, (2R, 4R)-2-Hydroxyaminocarbonyl-4-(4-methoxybenzoylamino)-1-(2-thiophenesulfonyl)-piperidine] | 8.4 µM | 0.073 µM | 0.044 µM | 0.035 µM |  | 
COc1ccc(S(=O)(=O)N2CC[C@H](NC(C)=O)C[C@H]2C(=O)NO)cc1 [Compound 81, (2S, 4S)-4-Acetylamino-2-hydroxyaminocarbonyl-1-(4-methoxybenzenesulfonyl)-piperidine] |  | 0.22 µM | 0.39 µM | 0.089 µM | 37.3% | 
CCN[C@@H]1CCN(S(=O)(=O)c2ccc(-c3ccc(OC)cc3)cc2)[C@@H](C(=O)O)C1 [Compound 27, (2R, 4R)-2-Carboxy-4-ethylamino-1-[4-(4-methoxyphenyl)benzenesulfonyl]-piperidine] |  |  |  |  |  | > 250 °C
O=C(N[C@@H]1CCN(S(=O)(=O)c2ccc(-c3ccc(Cl)cc3)cc2)[C@@H](C(=O)NO)C1)c1ccccn1 [Compound 74, (2R, 4R)-1-[4-(4-Chlorophenyl)benzenesulfonyl]-2-hydroxyaminocarbonyl-4-(2-pyridinecarbonylamino)-piperidine] |  | 0.0052 µM | 0.013 µM | 0.074 µM | 48.9% | 
COc1ccc(-c2ccc(S(=O)(=O)N3CC[C@H](NC(C)=O)C[C@@H]3C(=O)NO)cc2)cc1 [Compound 82, (2R, 4S)-4-Acetylamino-2-hydroxyaminocarbonyl-1-[4-(4-methoxyphenyl)benzenesulfonyl]-piperidine] |  | 0.74 µM | 0.44 µM | 1.3 µM | 0% | 
CC(C)CCC(=O)N[C@@H]1CCN(S(=O)(=O)c2ccc(-c3ccc(Cl)cc3)cc2)[C@@H](C(=O)NO)C1 [Compound 71, (2R, 4R)-1-[4-(4-Chlorohenyl)benzenesulfonyl]-2-hydroxyaminocarbonyl-4-(4-methylpentanoylamino)-piperidine] | 0.64 µM | 0.019 µM | 0.0034 µM | 0.29 µM |  | 
COc1ccc(-c2ccc(S(=O)(=O)N3CC[C@@H](NC(=O)CCC(C)C)C[C@@H]3C(=O)NO)cc2)cc1 [Compound 49, (2R, 4R)-2-Hydroxyaminocarbonyl-1-[4-(4-methoxyphenyl)benzenesulfonyl]-4-(4-methylpentanoylamino)-piperidine] | 2.6 µM | 0.00025 µM | 0.00026 µM | 0.13 µM |  | 
COc1ccc(C(=O)N[C@@H]2CCN(S(=O)(=O)c3ccc(-c4ccc(OC)cc4)cc3)[C@@H](C(=O)O)C2)cc1 [Compound 4, (2R, 4R)-2-Carboxy-4-(4-methoxybenzoylamino)-1-[4-(4-methoxyphenyl)benzenesulfonyl)-piperidine] |  |  |  |  |  | > 250 °C
